Reference: patent US9884048B2, “ERK inhibitors” (Merck Sharp & Dohme Corp., priority 2014, dated 2018)

What follows are molecules tested against phosphorylated active hERK2 enzyme (Homo sapiens (Human), UniProt P28482). Conditions: read-out: ERK2 IC50; IMAP-FP assay; 0.5 nM hERK2, 30 μM ATP; 10 point titration, 3 μM starting concentration.
Chain of phosphorylated active hERK2 enzyme (P28482 whole entry): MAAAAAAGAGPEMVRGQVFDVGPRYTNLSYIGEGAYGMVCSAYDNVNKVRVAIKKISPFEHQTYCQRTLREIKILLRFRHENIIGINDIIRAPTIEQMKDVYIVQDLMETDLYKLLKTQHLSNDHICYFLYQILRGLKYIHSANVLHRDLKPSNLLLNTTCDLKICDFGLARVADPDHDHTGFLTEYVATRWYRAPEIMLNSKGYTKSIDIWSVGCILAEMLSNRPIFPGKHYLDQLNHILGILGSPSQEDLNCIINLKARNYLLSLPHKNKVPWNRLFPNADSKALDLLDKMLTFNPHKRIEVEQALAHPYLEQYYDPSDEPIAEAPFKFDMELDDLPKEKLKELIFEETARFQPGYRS
Protocol: Active Human ERK2 (hERK2) Activity Assay:
Activated ERK2 activity was determined in an IMAP-FP assay (Molecular Devices). […] The final reaction in each well of 25 μL consists of 0.5 nM hERK2, 900 nM unlabeled peptide, 80 nM labeled-peptide, and 30 μM ATP. Phosphorylation reactions were allowed to proceed for 60 minutes and were immediately quenched by the addition of 60 μL IMAP detection beads (1:1000 dilutions) in IMAP binding buffer (Molecular Devices) with 24 mM NaCl. Plates were read on EnVision reader after 60 minutes binding equilibration using Fluorescence Polarization protocol (Perkin Elmer).

Row | SMILES | IC50
1 | Cc1cc(-n2ncc3cc(NC(=O)N[C@H]4CCC[C@@H]4OCc4ccccc4)ncc32)ccn1 [Example 154, 1-[(1S,2S)-2-(benzyloxy)cyclopentyl]-3-[1-(2-methylpyridin-4-yl)-1H-pyrazolo[3,4-c]pyridin-5-yl]urea] | 7.51 nM
2 | Cc1cc(-n2ncc3cc(NC(=O)N[C@H]4CN(C)C[C@@H]4c4ccc(-c5ccccc5)s4)ncc32)ccn1 [Example 155, 1-[(3R,4S)-1-methyl-4-(5-phenylthiophen-2-yl)pyrrolidin-3-yl]-3-[1-(2-methylpyridin-4-yl)-1H-pyrazolo[3,4-c]pyridin-5-yl]urea] | 591 nM
3 | Cc1cc(-n2ncc3cc(NC(=O)N[C@H]4CN(CC(F)(F)F)C[C@@H]4c4ccccc4)ncc32)ccn1 [Example 156, 1-[1-(2-methylpyridin-4-yl)-1H-pyrazolo[3,4-c]pyridin-5-yl]-3-[(3R,4S)-4-phenyl-1-(2,2,2-trifluoroethyl)pyrrolidin-3-yl)urea] | 8.85 nM
4 | Cc1cc(-n2ncc3cc(NC(=O)N[C@H]4CNC[C@@H]4Oc4ccccc4)ncc32)ccn1 [Example 157, 1-[1-(2-methylpyridin-4-yl)-1H-pyrazolo[3,4-c]pyridin-5-yl]-3-[(3S,4S)-4-phenoxypyrrolidin-3-yl)urea] | 35.3 nM
5 | Cc1cc(-n2ncc3cc(NC(=O)N[C@H]4CN(C)C[C@@H]4Oc4ccccc4)ncc32)ccn1 [Example 158, 1-[(3S,4S)-1-methyl-4-phenoxypyrrolidin-3-yl]-3-[1-(2-methylpyridin-4-yl)-1H-pyrazolo[3,4-c]pyridin-5-yl]urea] | 20.5 nM
6 | Cc1cc(-n2ncc3cc(NC(=O)NC(c4ccccc4)C4CCCO4)ncc32)ccn1 (stereo not drawn) [Example 159, 1-[1-(2-methylpyridin-4-yl)-1H-pyrazolo[3,4-c]pyridin-5-yl]-3-[phenyl(tetrahydrofuran-2-yl)methyl]urea] | 2.49 nM
7 | Cc1cc(-n2ncc3cc(NC(=O)N[C@H]4CCC[C@H]4Cc4ccccc4)ncc32)ccn1 [Example 160, 1-[(1S,2S)-2-benzylcyclopentyl]-3-[1-(2-methylpyridin-4-yl)-1H-pyrazolo[3,4-c]pyridin-5-yl)urea] | 13.9 nM
8 | Cc1cc(-n2ncc3cc(NC(=O)N[C@H]4CCC[C@@H]4Oc4ccccc4)ncc32)ccn1 [Example 161, 1-[1-(2-methylpyridin-4-yl)-1H-pyrazolo[3,4-c]pyridin-5-yl]-3-[(1S,2S)-2-phenoxycyclopentyl]urea] | 13.4 nM
9 | Cc1cc(-n2ncc3cc(NC(=O)N[C@H]4CCCC[C@@H]4Cc4ccccc4)ncc32)ccn1 [Example 163, 1-[(1S,2R)-2-benzylcyclohexyl]-3-[1-(2-methylpyridin-4-yl)-1H-pyrazolo[3,4-c]pyridin-5-yl)urea] | 39.4 nM
10 | Cc1cc(-n2ncc3cc(NC(=O)N[C@H]4CN(C)C[C@@H]4c4ccc(C5CC5)s4)ncc32)ccn1 [Example 164, 1-[(3R,4S)-4-(5-cyclopropylthiophen-2-yl)-1-methylpyrrolidin-3-yl]-3-[1-(2-methylpyridin-4-yl)-1H-pyrazolo[3,4-c]pyridin-5-yl]urea] | 1.13 nM
11 | Cc1cc(-n2ncc3cc(NC(=O)N[C@H]4CN(C)C[C@@H]4c4cnn(C)c4)ncc32)ccn1 [Example 165, 1-[(3R,4S)-1-methyl-4-(1-methyl-1H-pyrazol-4-yl)pyrrolidin-3-yl]-3-[1-(2-methylpyridin-4-yl)-1H-pyrazolo[3,4-c]pyridin-5-yl)urea] | 831 nM
12 | Cc1cc(-n2ncc3cc(NC(=O)NC4CCC(c5ccc(F)cc5)C4)ncc32)ccn1 (stereo not drawn) [Example 170, 1-[3-(4-fluorophenyl)cyclopentyl]-3-[1-(2-methylpyridin-4-yl)-1H-pyrazolo[3,4-c]pyridin-5-yl]urea] | 196 nM
13 | Cc1cc(-n2ncc3cc(NC(=O)NC4CCCC(c5ccccc5)C4)ncc32)ccn1 (stereo not drawn) [Example 171, 1-[1-(2-methylpyridin-4-yl)-1H-pyrazolo[3,4-c]pyridin-5-yl]-3-(3-phenyl-cyclohexyl)urea] | 2.85 nM
14 | Cc1cc(-n2ncc3cc(NC(=O)NC4CCOc5ccccc54)ncc32)ccn1 (stereo not drawn) [Example 172, 1-(3,4-dihydro-2H-chromen-4-yl)-3-[1-(2-methylpyridin-4-yl)-1H-pyrazolo[3,4-c]pyridin-5-yl)urea] | 40.7 nM
15 | Cc1cc(-n2ncc3cc(NC(=O)NC4CCCC(c5ccc(F)cc5)C4)ncc32)ccn1 (stereo not drawn) [Example 173, 1-[3-(4-fluorophenyl)cyclohexyl]-3-[1-(2-methylpyridin-4-yl)-1H-pyrazolo[3,4-c]pyridin-5-yl]urea] | 11.6 nM
16 | Cc1cc(-n2ncc3cc(NC(=O)NC4COc5ccccc54)ncc32)ccn1 (stereo not drawn) [Example 177, 1-(2,3-dihydro-1-benzofuran-3-yl)-3-[1-(2-methylpyridin-4-yl)-1H-pyrazolo[3,4-c]pyridin-5-yl]urea] | 215 nM
17 | Cc1cc(-n2ncc3cc(NC(=O)NC4CCC(c5ccccc5)C4)ncc32)ccn1 (stereo not drawn) [Example 178, 1-[1-(2-methylpyridin-4-yl)-1H-pyrazolo[3,4-c]pyridin-5-yl]-3-(3-phenylcyclopentyl)urea] | 37.1 nM
18 | Cc1cc(-n2ncc3cc(NC(=O)N[C@H]4CCC[C@@H]4Oc4cccnc4)ncc32)ccn1 [Example 179, 1-[1-(2-methylpyridin-4-yl)-1H-pyrazolo[3,4-c]pyridin-5-yl]-3-[(1S,2S)-2-(pyridin-3-yloxy)cyclopentyl]urea] | 511 nM
19 | Cc1cc(-n2ncc3cc(NC(=O)N[C@H]4CN(C)C[C@@H]4c4ccccc4C)ncc32)ccn1 [Example 180, 1-[(3R,4S)-1-methyl-4-(2-methylphenyl)pyrrolidin-3-yl]-3-[1-(2-methylpyridin-4-yl)-1H-pyrazolo[3,4-c]pyridin-5-yl]urea] | 0.28 nM
20 | Cc1cc(-n2ncc3cc(NC(=O)N[C@@H]4CN(C)C[C@H]4c4ccccc4)ncc32)ccn1 [Example 181, 1-((3S,4R)1-methyl-4-phenyl-pyrrolidin-3-yl)-3-[1-(2-methyl-pyridin-4-yl)-1H-pyrazolo[3,4-c]pyridin-5-yl]urea] | 0.983 nM
21 | Cc1cc(-n2ncc3cc(NC(=O)N[C@H]4CN(C)C[C@@H]4c4ccccc4)ncc32)ccn1 [Example 182, 1-((3R,4S)1-methyl-4-phenyl-pyrrolidin-3-yl)-3-[1-(2-methyl-pyridin-4-yl)-1H-pyrazolo[3,4-c]pyridin-5-yl]urea] | 59.7 nM
22 | Cc1cc(-n2ncc3cc(NC(=O)N[C@H]4[C@H](c5ccccc5)CN(C)C45COC5)ncc32)ccn1 [Example 183, 1-[(7R,8S)-5-methyl-7-phenyl-2-oxa-5-azaspiro[3.4]oct-8-yl]-3-[1-(2-methylpyridin-4-yl)-1H-pyrazolo[3,4-c]pyridin-5-yl]urea] | 12.2 nM
23 | Cc1cc(-n2ncc3cc(NC(=O)N[C@@H]4[C@@H](c5ccccc5)CN(C)C45COC5)ncc32)ccn1 [Example 184, 1-[(7S,8R)-5-methyl-7-phenyl-2-oxa-5-azaspiro[3.4]oct-8-yl]-3-[1-(2-methylpyridin-4-yl)-1H-pyrazolo[3,4-c]pyridin-5-yl]urea] | 873 nM
24 | Cc1cc(-n2ncc3cc(NC(=O)N[C@H]4CN(C)C[C@@H]4CCc4ccccc4)ncc32)ccn1 [Example 185, 1-[(3R,4S)-1-methyl-4-(2-phenylethyl)pyrrolidin-3-yl]-3-[1-(2-methylpyridin-4-yl)-1H-pyrazolo[3,4-c]pyridin-5-yl]urea] | 0.182 nM
